Tested on: corticospinal neurons (CSNs/CSMNs)
Assay: Laser-capture microdissection and Illumina microarray gene expression in corticospinal neurons contralateral to stroke
Assay type: in vivo, rat
Description: In a separate group of animals (n=20), layer V pyramidal cells of the sensorimotor cortex were retrogradely labeled by injecting Alexa-Fluor-488-conjugated cholera toxin B subunit (CTB; 300 U/μl in sterile saline) into the cervical spinal cord. For this, animals were anesthetized with a combination of ketamine and Domitor (medetomidine) and a laminectomy was performed at the cervical level of the spinal cord (C2-C4). CTB was stereotaxically delivered into four sites lateral to the corticospinal tract. Injections (1.3 μl) were spaced 1 mm apart on the rostro-caudal axis, and were made 0.5 mm to the left and right of the midline. After allowing two weeks for transport of the tracer, we performed either sham surgery with no treatment (n=6) or stroke surgery combined with saline (n=3) or inosine (n=4) treatment as described above. Seven days later, animals were decapitated under transient gas anesthesia, brains were removed and rinsed in cold RPMI medium, and a tissue block containing the sensorimotor cortex was dissected and placed in OCT Tissue Tek Medium (Sakura Finetek USA Inc., CA) on dry ice within five minutes of death. Ten μm sections were cut onto precleaned Gold Seal RITE-ON glass slides (Gold Seal Prod-ucts, Portsmouth, N.H.), placed on dry ice, and rapidly stored at −80° C.
Slide-mounted sections were thawed and dehydrated in RNAse-free ethanol gradients and xylene. Retro-gradely labeled, fluorescent cortical pyramidal cells in the undamaged hemisphere were individually captured using the Arcturus VERITAS system. ≧500 cells were collected from each animal and stored in Arcturus extraction buffer at −80° C. Total RNA was extracted from cells using the Micro-to-Midi TotalRNA Purification System (Invitrogen, Carlsbad Calif.) and double-amplified using the TargetAmp 2-Round Aminoallyl-aRNA Amplification kit 1.0 (Epicentre, Madison, Wis.). Amplified RNA was checked for average fragment length using the Agilent RNA 6000 Nano LabChip kit (Agilent Technologies, Santa Clara, Calif.) and then biotinylated and hybridized (1 μg) on Illumina RatRef-12 Expression BeadChip arrays (Illumina, San Diego Calif.), querying the expression of >22,000 RefSeq-curated rat transcripts. Results were obtained from a total of 15 samples representing 6 untreated controls, 4 animals with stroke treated with saline and 5 animals with stroke treated with inosine. Slides were processed and scanned with Illumina BeadStation platform according to the manufacturer protocol.
Raw data was analyzed using Bioconductor packages (www.bioconductor.org, (Gentleman et al., 2004)). Low level quality-control analysis was performed using inter-array Pearson correlation and clustering based on variance. Two arrays (1 saline and 1 inosine-treated) were outliers and were excluded from the analysis. Data was normalized using quantile normalization, and analysis of differential expression was performed using a linear model fitting (LIMMA package, (Smyth, 2005). Differentially expressed genes were classified according to gene ontology using Bioconductor packages and online tools (DAVID, http://david.abcc.ncifcrf.gov/). Pathway analysis was carried out using Ingenuity Pathway Analysis (Ingenuity Systems, www.ingenuity.com).

SMILES: OC[C@H]1O[C@@H](n2cnc3c(O)ncnc32)[C@H](O)[C@@H]1O [inosine]
- Signal Intensity, Sfrs10 (ILMN_48507, inosine after stroke): 2745
- Fold-Induction Stroke, ino vs. cntrl, Scarb2 (ILMN_48587): 0.71
- Signal Intensity, Scarb2 (ILMN_48587, inosine after stroke): 569
- Fold-Induction Stroke, ino vs. cntrl, Sec6l1 (ILMN_48688): 0.84
- Signal Intensity, Sec6l1 (ILMN_48688, inosine after stroke): 587
- Fold-Induction Stroke, ino vs. cntrl, Ube4a (ILMN_49300): 0.58
- Signal Intensity, Ube4a (ILMN_49300, inosine after stroke): 1509
- Fold-Induction Stroke, ino vs. cntrl, LOC501195 (ILMN_49366): 0.77
- Signal Intensity, LOC501195 (ILMN_49366, inosine after stroke): 1460
- Fold-Induction Stroke, ino vs. cntrl, Kcnc2 (ILMN_49569): 0.73
- Signal Intensity, Kcnc2 (ILMN_49569, inosine after stroke): 4642
- Fold-Induction Stroke, ino vs. cntrl, Arfrp1 (ILMN_49739): 0.93
- Signal Intensity, Arfrp1 (ILMN_49739, inosine after stroke): 1014
- Fold-Induction Stroke, ino vs. cntrl, Dmp1 (ILMN_49819): 0.38
- Signal Intensity, Dmp1 (ILMN_49819, inosine after stroke): 267
- Fold-Induction Stroke, ino vs. cntrl, Ralbp1 (ILMN_49884): 0.75
- Signal Intensity, Ralbp1 (ILMN_49884, inosine after stroke): 1553
- Fold-Induction Stroke, ino vs. cntrl, Snx2 (ILMN_50221): 0.66
- Signal Intensity, Snx2 (ILMN_50221, inosine after stroke): 1681
- Fold-Induction Stroke, ino vs. cntrl, Rpn2 (ILMN_50467): 0.71
- Signal Intensity, Rpn2 (ILMN_50467, inosine after stroke): 835
- Fold-Induction Stroke, ino vs. cntrl, RAMP4 (ILMN_50573): 0.75
- Signal Intensity, RAMP4 (ILMN_50573, inosine after stroke): 544
- Fold-Induction Stroke, ino vs. cntrl, Cdc37l (ILMN_50686): 0.83
- Signal Intensity, Cdc37l (ILMN_50686, inosine after stroke): 625
- Fold-Induction Stroke, ino vs. cntrl, LOC498489 (ILMN_50922): 0.49
- Signal Intensity, LOC498489 (ILMN_50922, inosine after stroke): 603
- Fold-Induction Stroke, ino vs. cntrl, Ube2m (ILMN_50967): 0.59
- Signal Intensity, Ube2m (ILMN_50967, inosine after stroke): 332
- Fold-Induction Stroke, ino vs. cntrl, LOC499428 (ILMN_51108): 0.50
- Signal Intensity, LOC499428 (ILMN_51108, inosine after stroke): 678
- Fold-Induction, complement cascade gene C3 (ILMN_51249, LCM-captured CSMNs contralateral a stroke): 2.17 fold
- Fold-induction CSMNs: LOC305633, (P) Antxr2 protein (ILMN_51277, over and above inosine's effect of decreasing stroke-induced changes): 3.13 fold
- Fold-Induction Stroke, ino vs. cntrl, Ik (ILMN_51588): 0.83
- Signal Intensity, Ik (ILMN_51588, inosine after stroke): 417
- Fold-Induction Stroke, ino vs. cntrl, LOC499767 (ILMN_51716): 0.64
- Signal Intensity, LOC499767 (ILMN_51716, inosine after stroke): 1723
- Fold-Induction Stroke, ino vs. cntrl, LOC497777 (ILMN_51717): 0.58
- Signal Intensity, LOC497777 (ILMN_51717, inosine after stroke): 577
- Fold-Induction Stroke, ino vs. cntrl, Tspan3 (ILMN_51868): 0.47
- Signal Intensity, Tspan3 (ILMN_51868, inosine after stroke): 3842
- Fold-Induction Stroke, ino vs. cntrl, LOC360807 (ILMN_51947): 0.50
- Signal Intensity, LOC360807 (ILMN_51947, inosine after stroke): 689
- Fold-Induction Stroke, ino vs. cntrl, LOC498931 (ILMN_51968): 0.54
- Signal Intensity, LOC498931 (ILMN_51968, inosine after stroke): 554
- Fold-Induction Stroke, ino vs. cntrl, LOC501619 (ILMN_51972): 0.59
- Signal Intensity, LOC501619 (ILMN_51972, inosine after stroke): 416
- Fold-Induction Stroke, ino vs. cntrl, Scd2 (ILMN_52257): 0.42
- Signal Intensity, Scd2 (ILMN_52257, inosine after stroke): 3009
- Fold-Induction Stroke, ino vs. cntrl, LOC317508 (ILMN_52577): 0.58
- Signal Intensity, LOC317508 (ILMN_52577, inosine after stroke): 493
- Fold-Induction Stroke, ino vs. cntrl, Nedd9 (ILMN_52827): 0.73
- Signal Intensity, Nedd9 (ILMN_52827, inosine after stroke): 550
- Fold-Induction Stroke, ino vs. cntrl, Atp6v1h (ILMN_52968): 0.62
- Signal Intensity, Atp6v1h (ILMN_52968, inosine after stroke): 525
- Fold-Induction Stroke, ino vs. cntrl, MGC94339 (ILMN_52985): 0.70
- Signal Intensity, MGC94339 (ILMN_52985, inosine after stroke): 547
- Fold-Induction Stroke, ino vs. cntrl, Ube2e3 (ILMN_53046): 0.61
- Signal Intensity, Ube2e3 (ILMN_53046, inosine after stroke): 434
- Fold-Induction Stroke, ino vs. cntrl, Arpc3 (ILMN_53076): 0.68
- Signal Intensity, Arpc3 (ILMN_53076, inosine after stroke): 423
- Fold-induction CSMNs: Irf1 (ILMN_53085, over and above inosine's effect of decreasing stroke-induced changes): 1.83 fold
- Fold-Induction Stroke, ino vs. cntrl, LOC309362 (ILMN_53195): 1.02
- Signal Intensity, LOC309362 (ILMN_53195, inosine after stroke): 498
- Fold-Induction Stroke, ino vs. cntrl, Hat1 (ILMN_53256): 0.69
- Signal Intensity, Hat1 (ILMN_53256, inosine after stroke): 362
- Fold-Induction Stroke, ino vs. cntrl, LOC499978 (ILMN_53292): 0.72
- Signal Intensity, LOC499978 (ILMN_53292, inosine after stroke): 970
- Fold-induction CSMNs: LOC498335, (P) Small inducible cytokine B13 precursor (CXCL13) (ILMN_53325, over and above inosine's effect of decreasing stroke-induced changes): 11.42 fold
- Fold-induction CSMNs: Mt1a (Metallothionein) (ILMN_53575, over and above inosine's effect of decreasing stroke-induced changes): 2.69 fold
- Fold-Induction Stroke, ino vs. cntrl, Cnbp1 (ILMN_53694): 0.76
- Signal Intensity, Cnbp1 (ILMN_53694, inosine after stroke): 4491
- Fold-Induction Stroke, ino vs. cntrl, MGC94053 (ILMN_53763): 0.59

From US8912144B2, “Method for treating stroke via administration of NEP1-40 and inosine” (Children's Medical Center Corporation, priority 2003, dated 2014)
